{"source": "patent US9011863B2", "about": "“Combinations of kinase inhibitors for the treatment of cancer” (Exelixis, Inc., priority 2010, dated 2015)", "key": {"[1]": {"system": "phospho-Akt, HER3, RTKs and intracellular kinases in HCC1937 cells", "assay": "phospho-RTK / phospho-kinase arrays and Western blotting in HCC1937 cells", "format": "cell-based, human", "procedure": "FIG. 1A. siRNA screen to identify kinases that potentially compensate for PI3K inhibition. HCC1937 breast cancer cells were treated with the indicated amounts of compound A for 6, 24, or 72 hours in medium containing 2.5% FBS. Cell lysates analyzed by immunoblotting with the indicated antibodies.\n(§1) FIGS. 3A and 3B. PI3K inhibition induces phosphorylation of RTKs and intracellular kinases. HCC1937 cells were treated with 10 μM compound A in medium containing 2.5% FBS for 0, 8, 24, or 48 hours. Media and drugs were replenished every 24 hours. Lysates were used to probe phospho-RTK arrays (FIG. 3A) or phospho-kinase arrays (FIG. 3B) (R&D systems). Corner spots are positive controls. Candidate kinases from the siRNA screen that are also phosphorylated upon treatment with compound A are shown in red.\nas §1, with “4A” for “3A”, “4B.” for “3B. PI3K inhibition induces phosphorylation of RTKs and intracellular kinases.”, “(A)” for “(FIG. 3A)”, “(B)” for “(FIG. 3B)”\nThe purpose of the present study is to identify kinases and kinase-regulated signaling pathways that compensate for PI3K inhibition in human breast cancer cells. To this end, siRNA screen is employed targeting 779 human kinases in order to determine if downregulation of specific kinases increases the sensitivity of HCC1937 human breast cancer cells to the PI3K inhibitor compound A, which a compound of formula I and of Table 1. […] Following reverse transfection with the siRNA library, cells are treated with either DMSO or 10 μM compound A for 72 hours in a medium containing 2.5% fetal bovine serum (FIGS. 1A and 2) and the alamar blue assay is used to measure cell viability FIG. 1B. […] HCC1937 cells were treated with 10 μM compound A in medium containing 2.5% FBS for 0, 2, 8, or 24 hours. RNA was isolated with Trizol and purified using the RNeasy column (Qiagen). Gene expression from three independent experiments was measured using the Gene titan 3′ microarray. *, p<0.05; **, p<0.01 versus 0 hours, as shown in FIG. 5."}, "[2]": {"system": "human breast cancer cell lines", "assay": "cell proliferation (cell counting) and crystal violet assays", "format": "cell-based", "procedure": "Cells were seeded in 12-well plates at a density of 2.5-3.5×10^4 cells/well in medium containing 2.5% FBS±inhibitors. Media and inhibitors were replaced every 3 days. On the days indicated in figures, cells were trypsinized and counted in a Beckman Coulter counter. For crystal violet assay, 5×10^4 cells/well were seeded in 6-well plates and grown in absence or presence of compound A for 6 days, fixed in methanol, stained with crystal violet, and photographed using an Olympus DP10 camera.\n(§2) A panel of breast cancer cell lines with dysregulated PI3K activity was treated with increasing doses of compound A under two- and three-dimensional (2D and 3D) growth conditions. All experiments were conducted in 2.5% FBS-containing media, unless otherwise stated. […] This was further confirmed by immunoblot analysis of biomarkers of cell death and G1-S cell cycle transition in lysates from cells treated for 24 hours with compound A as shown in FIG. 10B."}, "[3]": {"system": "human breast cancer cell lines", "assay": "three-dimensional (3D) growth in Matrigel", "format": "cell-based", "settings": "3D Matrigel, 2.5% FBS, read-out: IC50 in cells tested in 3D", "procedure": "Cells were seeded in 8-well chamber slides in growth-factor reduced Matrigel (BD Biosciences, San Jose Calif., USA)±compound A according to published methods. Fresh medium and drugs were replenished every third day. Colonies were photographed with an inverted light microscope with an ocular magnification of 10 times on the days recited in figures herein.\nas §2"}, "[4]": {"system": "p85-associated pTyr proteins in BT474 cells", "assay": "p85 immunoprecipitation with pTyr / HER3 immunoblot", "format": "cell-based, human", "settings": "BT474, 0-20 μM, 24 hours", "procedure": "FIG. 13C depicts a photomicrrograph of immunoblots of cell lysates from BT474 cells which were treated with 0-20 μM compound A for 24 hours. Cells were then lysed, and 0.5 mg of lysate subjected to immunoprecipitation (IP) with a p85 antibody followed by p85 and pTyr.\nFIG. 13D depicts a photomicrrograph of immunoblots of cell lysates from BT474 cells which were treated with 0-20 μM compound A for 24 hours. Cells were then lysed, and 0.5 mg of lysate subjected to immunoprecipitation (IP) with a p85 antibody followed by p85 and HER3.\nImmunoprecipitation, immunoblotting, and RTK assays were performed according to published methods. […] Immunoreactive signals were detected by enhanced chemilluminsecence (Pierce, Rockford, Ill., USA). […]\nIn HER2 overexpressing cells, although not bound by any particular theory, it is believed that the main mechanism of activation of PI3K is the coupling of pHER3 to an SH2 domain in the N-terminus of p85, the regulatory subunit of PI3K. […] Consistent with previous studies, the p85-associated approximately 200-kDa band was also detected with HER3 and pHER3^Y1197 antibodies as shown in FIGS. 13D and 13F. […]"}}}
{"smiles": "COc1ccc(Cl)c(Nc2nc3ccccc3nc2NS(=O)(=O)c2cccc(NC(=O)C(C)(C)N)c2)c1", "note": "[Compound A]", "values": [{"measurement": "phospho-Akt and HER3 by Western blotting", "setting": "[1]; HCC1937", "value": "decreases phospho-Akt at S473 and T308 and increases phospho- and total HER3"}, {"measurement": "phosphorylation of MAP kinases", "setting": "[1]; HCC1937", "value": "increases phosphorylation of the MAP kinases ERK, JNK, and p38 MAPK"}, {"measurement": "phospho-Akt", "setting": "[1]; HCC1937, 10 μM, 48 hours", "value": "phosphorylation at S473 is partially restored"}, {"measurement": "phospho-Akt", "setting": "[1]; HCC1937, 10 μM, eight and 24 hour treatments", "value": "suppressed phospho-Akt at both S473 and T308"}, {"measurement": "expression and/or phosphorylation of RTKs and intracellular kinases", "setting": "[1]; HCC1937, 10 μM, within 8-48 hours", "value": "increased expression and/or phosphorylation of many RTKs and intracellular kinases"}, {"measurement": "cell number below baseline", "setting": "[2]; 20 μM", "value": "induced cell death"}, {"measurement": "IC50", "setting": "[2]; Homo sapiens, panel of breast cancer cell lines, 2.5% FBS, read-out: IC50 of cell growth (2D)", "value": "~6", "unit": "µM"}, {"measurement": "2D growth", "setting": "[2]; panel of breast cancer cell lines, increasing doses", "value": "inhibited the 2D growth of all cell lines in a dose-dependent manner"}, {"measurement": "IC50", "setting": "[3]", "value": "≤ 6", "unit": "µM"}, {"measurement": "p85-associated pTyr band", "setting": "[4]", "value": "dose-dependent increase of approximately 200-kDa main pTyr band"}]}
